The results in this text go back to patent US20070275961A1, “Triazolo ' 1, 5-A ! Pyrimidines and Their Use in Medicine” (VERNALIS (CAMBRIDGE) LIMITED., priority 2003, published 2007).

Read-outs that look alike come from different tables or passages of the source. Bounds are passed on as bounds.

What all share (type): biochemical
In test [1] the target is T1, PDK1 enzyme (Homo sapiens, UniProt O15530).
T1 sequence (O15530 1-556): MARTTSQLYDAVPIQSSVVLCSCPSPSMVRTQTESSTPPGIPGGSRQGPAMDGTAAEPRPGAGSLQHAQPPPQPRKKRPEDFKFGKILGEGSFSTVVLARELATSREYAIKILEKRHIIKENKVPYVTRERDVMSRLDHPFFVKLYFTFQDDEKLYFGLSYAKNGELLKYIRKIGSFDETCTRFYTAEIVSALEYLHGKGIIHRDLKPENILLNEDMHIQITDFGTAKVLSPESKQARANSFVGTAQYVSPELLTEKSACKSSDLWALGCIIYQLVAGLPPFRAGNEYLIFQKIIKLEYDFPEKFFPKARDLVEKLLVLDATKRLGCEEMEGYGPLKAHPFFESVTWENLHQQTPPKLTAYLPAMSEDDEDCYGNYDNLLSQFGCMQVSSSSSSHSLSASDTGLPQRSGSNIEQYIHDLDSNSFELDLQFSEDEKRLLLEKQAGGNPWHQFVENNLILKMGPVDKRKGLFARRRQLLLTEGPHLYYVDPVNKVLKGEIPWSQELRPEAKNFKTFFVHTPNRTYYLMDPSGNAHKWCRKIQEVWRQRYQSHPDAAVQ
In words: PDK1 3'-phosphoinositide-dependent kinase assay, phosphorylation of synthetic peptide (33P-ATP filtration). The method, then:
(§1) The assay mixture containing the inhibitor and PDK1 enzyme was mixed together in a microtiter plate in a final volume of 50 μl and incubated for 60 min at 30° C. The assay mixture contained 0.01 mM unlabeled ATP, 0.01 μCi/μl ^33P-γ-ATP, 0.075 mM peptide, 0.1 mg/ml BSA, 7.5 mM magnesium acetate, 0.05 M Tris.HCl, pH 7.5, 0.5% 2-mercaptoethanol. The reaction was stopped by adding 50 μl of 50 mM phosphoric acid. 90 μl of the mixture were transferred to a pre-wetted 96-well Multiscreen MAPHNOB filtration plate (Millipore) and filtered on a vacuum manifold. The filter plate was washed with three successive additions of 200 μl 50 mM phosphoric acid and then with 100 μl methanol. The filtration plate was dried for 10 min at 65° C., scintillant added and phosphorylated peptide quantified in a scintillation counter (Trilux, PerkinElmer).

Test [2] addresses T2, Chk1 (Homo sapiens, UniProt O14757).
T2 sequence (O14757 1-476): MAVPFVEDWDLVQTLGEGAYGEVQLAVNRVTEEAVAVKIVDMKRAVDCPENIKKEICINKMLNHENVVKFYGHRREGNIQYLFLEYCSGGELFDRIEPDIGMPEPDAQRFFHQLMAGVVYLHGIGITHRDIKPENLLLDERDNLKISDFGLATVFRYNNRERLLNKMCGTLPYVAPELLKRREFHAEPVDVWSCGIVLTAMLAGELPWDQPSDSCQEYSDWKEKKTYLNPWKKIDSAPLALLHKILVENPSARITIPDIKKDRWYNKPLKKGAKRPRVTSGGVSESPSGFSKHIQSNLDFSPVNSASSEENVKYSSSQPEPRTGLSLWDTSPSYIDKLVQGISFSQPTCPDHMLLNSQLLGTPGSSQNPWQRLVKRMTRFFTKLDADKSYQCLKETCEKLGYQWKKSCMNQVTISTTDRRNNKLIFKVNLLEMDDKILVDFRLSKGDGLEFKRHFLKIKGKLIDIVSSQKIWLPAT
In words: Chk1 kinase assay, phosphorylation of Chktide (33P-ATP filtration). The method, then: Assays for the Chk1 kinase activity were carried out by monitoring the phosphorylation of a synthetic peptide Chktide with the amino acid sequence, […]. The assay mixture containing the inhibitor and Chk1 enzyme was mixed together in a microtiter plate in a final volume of 50 μl and incubated for 40 minutes at 30° C.
The assay mixture contained 0.01 mM unlabeled ATP, 0.5 μCi ^33P-γ-ATP, 30 μM Chktide, 0.1 mg/ml BSA, 50 mM Hepes-NaOH pH 7.5 and 11 nM GST-Chk1 enzyme. The reaction was stopped by adding 50 μl of 50 mM phosphoric acid. 90 μl of the mixture was transferred to a pre-wetted 96-well Multiscreen MAPHNOB filtration plate (Millipore) and filtered on a vacuum manifold. The filter plate was washed with three successive additions of 200 μl 50 mM phosphoric acid and then with 100 μl methanol. The filtration plate was dried for 10 min at 65° C., scintillant added and phosphorylated peptide quantified in a scintillation counter (Trilux, PerkinElmer).

Test [3] deals with CDK2 enzyme, complexed with cyclin A (Homo sapiens, UniProt P24941). In words: CDK2 cyclin dependent kinase assay, phosphorylation of synthetic peptide […] (33P-ATP filtration). Conditions: 0.1 mM ATP. The method, then: as §1, with “and CDK2 enzyme, complexed with cyclin A (0.4 U/ml)” for “and PDK1 enzyme”, “for 40” for “for 60”, “contained 0.1” for “contained 0.01”, “^33P-γ-ATP, 0.03” for “^33P-γ-ATP, 0.075”, “acetate, 50 mM HEPES-NaOH,” for “acetate, 0.05 M Tris.HCl,”, “pH 7.5.” for “pH 7.5, 0.5% 2-mercaptoethanol.”
HEPES is N-[2-hydroxyethyl]piperazine-N′-[2-ethanesulfonic acid]. BSA is bovine serum albumin.

Setting [4] is: Table 2, 0.01 mM ATP, read-out: PDK1 IC50.
Setting [5] is: Table 2, 0.01 mM ATP, read-out: Chk1 IC50.
Where [6] appears, read: Table 1, 0.01 mM ATP, read-out: PDK1 IC50.
Setting [7] is: Table 1, 0.01 mM ATP, read-out: Chk1 IC50.
The mark [8] stands for this setting: Table 4, 0.01 mM ATP, read-out: PDK1 IC50.
[9] abbreviates: Table 4, 0.01 mM ATP, read-out: Chk1 IC50.
The mark [10] stands for this setting: Table 3, 0.01 mM ATP, read-out: PDK1 IC50.
The mark [11] stands for this setting: Table 3, 0.01 mM ATP, read-out: Chk1 IC50.

`CC(C)(C)OC(=O)N1CCC(CNc2cc(Cl)nc3ncnn23)CC1` [Example 76]: the IC50 in test [1] (setting [4]), in test [2] (setting [5]) and in test [3] (Table 2) was above 200 µM in each case.

For `C[Si](C)(C)CCOCn1ncc2ccc(Nc3cc(Cl)nc4ncnn34)cc21` [Example 61], the IC50 in test [1] (setting [4]), in test [2] (setting [5]) and in test [3] (Table 2) was above 200 µM in each case.

Regarding `CCCc1cc(Nc2ccc(S(C)(=O)=O)cc2)n2ncnc2n1` [Example 74], the figures for the IC50 in test [1] (setting [4]), in test [2] (setting [5]) and in test [3] (Table 2) were above 200 µM, above 200 µM and 14.2 µM, respectively.

In the case of `NS(=O)(=O)c1ccc(Nc2cc(Nc3cccc(Cl)c3)nc3ncnn23)cc1` [Example 35], the figures for the IC50 in test [1] (setting [6]), in test [2] (setting [7]) and in test [3] (Table 1) were 48 µM, 40.5 µM and 1.72 µM, respectively.

As to `Fc1cccc(-c2cc(Nc3cccc(Oc4ccccc4)c3)nc3ncnn23)c1` [Example 152], the IC50 in test [1] (setting [8]) is 13.4 µM; in test [2] (setting [9]), 32.7 µM.

Regarding `CC(C)c1cc(Nc2ccc(C(N)=O)cc2)nc2ncnn12` [Example 115], the 50% inhibitory concentration (IC50) in test [1] (setting [10]) was above 200 µM; in test [2] (setting [11]) it was 83.7 µM; in test [3] (Table 3), 148 µM.

In the case of `O=C(O)c1ccc(Nc2cc(Cl)nc3ncnn23)cc1` [Example 25], the IC50 was above 200 µM in test [1] (setting [6]), above 200 µM in test [2] (setting [7]) and 93.2 µM in test [3] (Table 1).

As to `CCc1cc(OCCN)cc(-c2cc(Nc3ccc(C(N)=O)cc3)nc3ncnn23)c1` [Example 166], the IC50 in test [1] (setting [8]) worked out at 1.2 µM; in test [2] (setting [9]), 2.7 µM; in test [3] (Table 4), 2.58 µM.

Consider `CCN(CC)c1cc(NCC2CCNCC2)n2ncnc2n1` [Example 86], for which the IC50 in test [1] (setting [4]) and in test [2] (setting [5]) was above 200 µM each time.

For the molecule `O=S(=O)(c1ccc(Nc2cc(Cl)nc3ncnn23)cc1)N1CCOCC1` [Example 17], the results for the IC50 in test [1] (setting [6]), in test [2] (setting [7]) and in test [3] (Table 1) were above 200 µM, above 200 µM and 16.7 µM, respectively.

Regarding `NS(=O)(=O)c1ccc(Nc2cc(Oc3ccccc3)nc3ncnn23)cc1` [Example 13], the IC50 was above 200 µM in test [1] (setting [6]), above 200 µM in test [2] (setting [7]) and 20.1 µM in test [3] (Table 1).

With `CCN(CC)CCNC(=O)c1ccc(Nc2cc(Cc3ccccc3OC)n3ncnc3n2)cc1` [Example 125], the IC50 in test [1] (setting [10]) was above 200 µM; in test [2] (setting [11]), 37.4 µM; in test [3] (Table 3), above 200 µM.

As for `CS(=O)(=O)c1ccc(CNc2cc(Cl)nc3ncnn23)cc1` [Example 95], the IC50 in test [1] (setting [4]) was above 200 µM; in test [2] (setting [5]) it was above 200 µM; in test [3] (Table 2), 76.2 µM.

`Brc1cccc(-c2cc(NCc3ccncc3)n3ncnc3n2)c1` [Example 55]: the IC50 in test [1] and in test [2] was above 200 µM in each case.

Turning to `CNS(=O)(=O)Cc1ccc(Nc2cc(-c3cccc(F)c3)n3ncnc3n2)cc1` [Example 159], the figures for the IC50 in test [1] (setting [8]) and in test [2] (setting [9]) were 7.66 µM and 22.6 µM, respectively.

In the case of `CN(C)c1ccc(Nc2cc(-c3cccc(F)c3)n3ncnc3n2)cc1` [Example 158], the results for the IC50 in test [1] (setting [8]) and in test [2] (setting [9]) were 10.5 µM and 6.75 µM, respectively.

As for `CCCc1cc(OCCN(C)C)cc(-c2cc(Nc3ccc(C(N)=O)cc3)nc3ncnn23)c1` [Example 162], the IC50 in test [1] (setting [8]) is 7.34 µM; in test [2] (setting [9]) it was 31.7 µM.

In the case of `CCOc1cccc(-c2cc(Nc3ccc(C(N)=O)cc3)nc3ncnn23)c1` [Example 144], the IC50 in test [1] (setting [8]) is 12.2 µM; in test [2] (setting [9]) it was 68.3 µM.

For the molecule `CN(C)CCOc1cccc(-c2cc(Nc3ccc(C(N)=O)cc3)nc3ncnn23)c1` [Example 163], the concentration for half-maximal inhibition (IC50) in test [1] (setting [8]) is 5.44 µM; in test [2] (setting [9]), 9.82 µM.

Regarding `NC(=O)c1ccc(Nc2cc(-c3cccc(O)c3)n3ncnc3n2)cc1` [Example 142], the IC50 in test [1] (setting [8]) is 4.66 µM; in test [2] (setting [9]) it was 3.92 µM.

As to `NC(=O)Cc1ccc(Nc2cc(-c3ccc4c(c3)OCO4)n3ncnc3n2)cc1` [Example 143], the IC50 in test [1] (setting [8]) amounted to 11.4 µM; in test [2] (setting [9]), 4.71 µM.

Take `NC(=O)c1ccc(Nc2cc(-c3cccc(OCC4CCNCC4)c3)n3ncnc3n2)cc1` [Example 150]: the IC50 in test [1] (setting [8]) worked out at 14.6 µM; in test [2] (setting [9]) it was 19.7 µM.

Turning to `Fc1cccc(-c2cc(Nc3ccc(Oc4ccccc4)cc3)nc3ncnn23)c1` [Example 153], the IC50 in test [1] (setting [8]) was 12 µM; in test [2] (setting [9]) it was 24.7 µM.

`Fc1cccc(-c2cc(Nc3ccc(Sc4ccccc4)cc3)nc3ncnn23)c1` [Example 155]: the figures for the 50% inhibitory concentration (IC50) in test [1] (setting [8]) and in test [2] (setting [9]) were 12.6 µM and 15.1 µM, respectively.

For `CCCc1cc(OCCN)cc(-c2cc(Nc3ccc(C(N)=O)cc3)nc3ncnn23)c1` [Example 161], the IC50 in test [1] (setting [8]) is 1.66 µM; in test [2] (setting [9]) it was 9.04 µM.

Consider `NS(=O)(=O)c1ccc(Nc2cc(OC3CCCCC3)nc3ncnn23)cc1` [Example 2, 7-(4-Aminosulfonylphenylamino)-5-cyclohexyloxytriazolo[1,5-a]pyrimidine], for which the half-inhibitory concentration (IC50) in test [1] (setting [6]) and in test [2] (setting [7]) was above 200 µM throughout.

In the case of `CCCc1cc(OC)cc(-c2cc(Nc3ccc(C(N)=O)cc3)nc3ncnn23)c1` [Example 160], the figures for the IC50 in test [1] (setting [8]) and in test [2] (setting [9]) were 1.32 µM and 15.8 µM, respectively.

With `CCc1cc(OCCN)cc(-c2cc(Nc3ccc(C(=O)NCCN(CC)CC)cc3)nc3ncnn23)c1` [Example 167], the IC50 in test [1] (setting [8]) was 3.99 µM; in test [2] (setting [9]) it was 3.39 µM.

`NS(=O)(=O)c1ccc(Nc2cc(OCC3CCCCC3)nc3ncnn23)cc1` [Example 51]: the IC50 in test [1] (setting [6]) and in test [2] (setting [7]) was above 200 µM throughout.

As to `CCc1cc(O)cc(-c2cc(Nc3ccc(C(=O)NCCN(CC)CC)cc3)nc3ncnn23)c1` [Example 164], the IC50 in test [1] (setting [8]) was 1.6 µM; in test [2] (setting [9]) it was 0.66 µM.

With `NS(=O)(=O)c1ccc(Nc2cc(N[C@H]3CC[C@H](N)CC3)nc3ncnn23)cc1` [Example 36], the figures for the IC50 in test [1] (setting [6]) and in test [2] (setting [7]) were 43.3 µM and 93.5 µM, respectively.

For the molecule `NS(=O)(=O)c1ccc(Nc2cc(NC3CCCCC3)nc3ncnn23)cc1` [Example 37], the figures for the IC50 in test [1] (setting [6]) and in test [2] (setting [7]) were 64 µM and above 200 µM, respectively.

For the molecule `O=S(=O)(Nc1nccs1)c1ccc(Nc2cc(-c3cccc(F)c3)n3ncnc3n2)cc1` [Example 156], the IC50 in test [1] (setting [8]) worked out at 7.94 µM; in test [2] (setting [9]), 13 µM.

The IC50 is the concentration at which inhibition is half-maximal.
